EC50 data for two molecules are collected here from patent US12139520B2 (priority 2020, dated 2024).

As a reminder, the pEC50 is the negative decadic logarithm of the EC50, by convention in mol/L.

Molecules are shown by their SMILES. pEC50: −log10 of the molar value. Numbered stars: 1 amine (or outer) side, 2 acyl side, 3 side chain; on linkers, the order of the positions; unused ones are H or OH. Bridge positions count the residues as written; N and C are the ends. Square brackets hold non-standard residues; d marks the D form. Peptide text beside a SMILES is read from it. * marks the point of attachment. C20 diacid = O=C(O)CCCCCCCCCCCCCCCCCCC(=O)*; γGlu = O=C(O)[C@H](CCC(=O)[*:2])N[*:1]; Hyp = O=C(O)[C@@H]1C[C@@H](O)CN1; Aib = CC(C)(N)C(=O)O A value given as a limit tells only on which side of the number the result lay.

The target of one experiment is hAM1 receptor (Homo sapiens, UniProt O60895+Q16602). Nature of the experiment: cAMP assay for in vitro receptor activation, hAM1-R. The conditions noted are these: cAMP assay, hAM1 receptor; read-out: hAM1R EC50. In kind it is cell-based. The method in brief:
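Stable hAM1 cells (monoclonal) plated 8000/well; buffer DPBS, 0.05% casein, 0.5 mM IBMX; cAMP read-out.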
In general terms: Changes in cAMP serve as a functional read-out for many G protein-coupled receptors.

The target of a further experiment is T1, hAMY3 receptor (Homo sapiens, UniProt O60896+P30988).
T1 sequence (P30988 25-474): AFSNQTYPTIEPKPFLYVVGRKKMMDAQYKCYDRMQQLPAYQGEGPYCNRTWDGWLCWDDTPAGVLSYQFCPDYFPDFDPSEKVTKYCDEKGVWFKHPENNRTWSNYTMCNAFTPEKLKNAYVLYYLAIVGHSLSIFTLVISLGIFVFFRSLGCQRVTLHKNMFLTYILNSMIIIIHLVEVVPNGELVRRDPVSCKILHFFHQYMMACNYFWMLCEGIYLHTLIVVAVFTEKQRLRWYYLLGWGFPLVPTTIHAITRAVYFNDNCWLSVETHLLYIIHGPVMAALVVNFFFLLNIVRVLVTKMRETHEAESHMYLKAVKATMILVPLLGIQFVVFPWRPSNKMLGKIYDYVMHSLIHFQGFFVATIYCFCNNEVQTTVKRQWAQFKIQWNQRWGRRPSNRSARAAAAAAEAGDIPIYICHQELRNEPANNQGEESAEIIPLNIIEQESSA
T1 sequence (O60896 24-148 partner): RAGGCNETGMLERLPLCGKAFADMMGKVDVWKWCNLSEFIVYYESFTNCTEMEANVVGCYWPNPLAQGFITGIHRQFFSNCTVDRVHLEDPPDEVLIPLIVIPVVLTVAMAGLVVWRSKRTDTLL
Nature of the experiment: cAMP assay for in vitro receptor activation, hAMY3-R. In kind it is cell-based. The conditions noted are these: cAMP assay, hAMY3 receptor; read-out: hAMY3R EC50. In outline: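 Stable hAMY3 cells; DPBS + 0.05% casein + 0.5 mM IBMX; graded compound doses, 30 min, RT; cAMP via HTRF Gs kit, TR-FRET read at 1 h.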

Sequence of hAM1 receptor (Q16602 23-461): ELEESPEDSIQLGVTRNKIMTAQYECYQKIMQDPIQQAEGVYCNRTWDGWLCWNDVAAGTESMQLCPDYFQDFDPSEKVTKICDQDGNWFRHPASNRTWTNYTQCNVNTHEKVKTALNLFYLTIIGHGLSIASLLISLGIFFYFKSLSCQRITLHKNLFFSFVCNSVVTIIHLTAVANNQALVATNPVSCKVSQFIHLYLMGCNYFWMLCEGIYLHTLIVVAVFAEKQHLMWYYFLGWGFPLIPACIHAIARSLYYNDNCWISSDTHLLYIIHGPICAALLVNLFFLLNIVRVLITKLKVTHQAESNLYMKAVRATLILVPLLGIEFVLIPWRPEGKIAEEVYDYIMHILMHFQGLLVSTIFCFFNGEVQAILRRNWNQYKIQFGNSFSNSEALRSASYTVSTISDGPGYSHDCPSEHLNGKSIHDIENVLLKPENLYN
Sequence of hAM1 receptor (O60895 43-175 partner): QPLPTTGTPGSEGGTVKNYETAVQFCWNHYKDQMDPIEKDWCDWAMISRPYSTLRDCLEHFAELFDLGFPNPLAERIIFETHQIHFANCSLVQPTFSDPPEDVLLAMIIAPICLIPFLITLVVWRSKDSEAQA

Consider `CC[C@H](C)[C@H](NC(=O)[C@H](CCC(N)=O)NC(=O)[C@H](Cc1c[nH]cn1)NC(=O)[C@H](C)NC(=O)[C@H](CC(C)C)NC(=O)[C@H](CCCNC(=N)N)NC(=O)[C@H](CCC(N)=O)NC(=O)[C@@H](NC(=O)[C@@H](NC(=O)[C@@H]1CSSC[C@H](NC(=O)[C@H](CCCCN)NC(=O)CC[C@H](NC(=O)CCCCCCCCCCCCCCCCCCC(=O)O)C(=O)O)C(=O)N[C@@H](CC(N)=O)C(=O)N[C@@H]([C@@H](C)O)C(=O)NC(C)(C)C(=O)N[C@@H]([C@@H](C)O)C(=O)N1)[C@@H](C)O)C(C)C)C(=O)N[C@@H](Cc1ccc(O)cc1)C(=O)N[C@@H](CCC(N)=O)C(=O)N[C@@H](Cc1ccccc1)C(=O)N[C@H](C(=O)N[C@@H](CC(=O)O)C(=O)N[C@@H](CCCCN)C(=O)N[C@@H](CC(=O)O)C(=O)N[C@@H](CCCCN)C(=O)N[C@@H](CC(=O)O)C(=O)N[C@@H](CC(N)=O)C(=O)N[C@H](C(=O)N[C@@H](C)C(=O)N1CCC[C@H]1C(=O)N1CCC[C@H]1C(=O)N[C@H](C(=O)N[C@@H](CC(N)=O)C(=O)N[C@H](C(=O)NCC(=O)N[C@@H](CO)C(=O)N[C@@H](CC(N)=O)C(=O)NCC(=O)N1C[C@H](O)C[C@H]1C(N)=O)C(C)C)[C@@H](C)O)C(C)C)[C@@H](C)O` [compound 119] ({C20 diacid-γGlu}-KCNT[Aib]TCTVQRLAHQIYQFTDKDKDNVAPPTNVGSNG[Hyp]-NH2; disulfide 2-7), for which the values for the pEC50 at hAM1 receptor and on hAMY3 receptor were less than 5.30 and 10.62, respectively.

Take `CC[C@H](C)[C@H](NC(=O)[C@H](CCC(N)=O)NC(=O)[C@H](Cc1c[nH]cn1)NC(=O)[C@H](C)NC(=O)[C@H](CC(C)C)NC(=O)[C@H](CCCNC(=N)N)NC(=O)[C@H](CCC(N)=O)NC(=O)[C@@H](NC(=O)[C@@H](NC(=O)[C@@H]1CSSC[C@H](NC(=O)[C@H](CCCCN)NC(=O)CC[C@H](NC(=O)CCCCCCCCCCCCCCCCCCC(=O)O)C(=O)O)C(=O)N[C@@H](CC(N)=O)C(=O)N[C@@H]([C@@H](C)O)C(=O)N[C@@H](C)C(=O)N[C@@H]([C@@H](C)O)C(=O)N1)[C@@H](C)O)C(C)C)C(=O)N[C@@H](C)C(=O)N[C@@H](CCC(N)=O)C(=O)N[C@@H](Cc1ccccc1)C(=O)N[C@H](C(=O)N[C@@H](CC(=O)O)C(=O)N[C@@H](CCCCN)C(=O)N[C@@H](CC(=O)O)C(=O)N[C@@H](CCCCN)C(=O)N[C@@H](CC(=O)O)C(=O)N1CCC[C@H]1C(=O)N[C@H](C(=O)N[C@@H](C)C(=O)N1CCC[C@H]1C(=O)N1CCC[C@H]1C(=O)N[C@H](C(=O)N[C@@H](CC(N)=O)C(=O)N[C@H](C(=O)NCC(=O)N[C@@H](CO)C(=O)N[C@@H](CC(N)=O)C(=O)N[C@@H](CO)C(=O)N1C[C@H](O)C[C@H]1C(N)=O)C(C)C)[C@@H](C)O)C(C)C)[C@@H](C)O` [compound 120] ({C20 diacid-γGlu}-KCNTATCTVQRLAHQIAQFTDKDKDPVAPPTNVGSNS[Hyp]-NH2; disulfide 2-7): the pEC50 on hAM1 receptor was less than 5.30; at hAMY3 receptor, 10.60.
